Laboratory results taken from PMC6138628, “Enhanced uptake of gH625 by blood brain barrier compared to liver in vivo: characterization of the mechanism by an in vitro model and implications for delivery” (Scientific Reports, 2018).
Read-outs that look alike come from different tables or passages of the source. Residues, ends and D or L forms follow the SMILES beside them.

Columns and labels:
[1] = Tryptophan quenching by acrylamide; type: physicochemical; settings: peptide 4 µM, peptide/lipid 1/200, acrylamide up to 0.2 M, λex 295 nm, λem 340 nm
Method: A solution containing 4 µM of gH625 in the absence or presence of LUVs at a peptide/lipid molar ratio of 1/200, was titrated with the water-soluble quencher acrylamide (4 M mother solution). The maximal concentration of acrylamide in the samples is 0.2 M. Fluorescence was measured with λex 295 nm and λem 340 nm[43]. The data were analysed with the Stern-Volmer equation[43], F0/F = 1 + Ksv [Q], where F0 and F represent the fluorescence intensities in the absence and the presence of the quencher (Q), respectively. The Ksv is the Stern-Volmer quenching constant, and is correlated to the accessibility of the tryptophan residue to acrylamide. […] Ksv is thus determined by the amount of non-lipid-associated free peptide as well as the peptide fraction located on the surface of the bilayer.
The observed changes in the tryptophan emission upon binding to lipid vesicles indicate gH625 insertion into the hydrophobic region of the bilayers. We determined the accessibility of the tryptophan residues of membrane bound peptides towards acrylamide, a neutral, water-soluble quencher, which is unable to penetrate into the hydrophobic core of the lipid bilayer. In fact, tryptophan residues more deeply buried inside the membrane are less strongly quenched.

[2] = outer NBD reduced with sodium dithionite
Method: A modification of the lipid mixing experiment allowed to measure peptide-induced mixing of the inner monolayer. A concentration of 0.6% mol for each of the fluorescent probes within the liposome was used. In order to completely reduce the NBD located at the outer surface of the membrane, LUVs were treated with sodium dithionite 100 mM (from a stock solution of 1 M dithionite in 1 M TRIS, pH 10.0) for approximately 1 h on ice in the dark. Excess sodium dithionite was removed by size exclusion chromatography through a Sephadex G-75 50 DNA Grade filtration column (GE Healthcare) eluted with a buffer containing 10 mM TRIS, 100 mM NaCl, and 1 mM EDTA, pH 7.4.
In the inner monolayer assay, the fluorescence from the vesicle membranes’ outer monolayer is eliminated by the addition of an aqueous reducing agent; while in the lipid mixing experiment we measured both hemi-fusion and complete fusion, in this experiment we determined only the extent of lipid mixing between the inner monolayers.

[3] = Membrane fluidity, Laurdan generalized polarization (GP); type: physicochemical; settings: P/L molar ratio 0.5, after 10 min, 37 °C, 5 mM HEPES, 100 mM NaCl, pH 7.4
Method: The samples were vortexed and lyophilized overnight.
LUVs containing Laurdan were prepared to determine membrane fluidity. In order to insert Laurdan into the bilayer, it was added to lipid films before hydration. The peptide gH625 was added to LUVs at a P/L molar ratio of 0.5 and after 10 min the fluorescence spectra were recorded using a 1 cm path length quartz cell, thermostated at 25 °C or 37 °C. Spectra were corrected for the baseline signal. Laurdan emission spectra were recorded from 400 to 550 nm with λex 365 nm in the absence or presence of gH625 in 5 mM HEPES, 100 mM NaCl buffer (pH 7.4). Laurdan emission can shift from 440, in the ordered phase, to 490 in the disordered phase. The excitation generalized polarization (GP) was calculated as GP = (I440 − I490)/(I440 + I490) where I440 and I490 are the fluorescence intensities at the maximum emission wavelength in the ordered (λem 440 nm) and disordered (λem 490 nm) phases.
LUVs fluidity before and after the addition of gH625 were obtained using the fluorescent probe Laurdan[47],[48]. […] The Generalized Polarization (GP) is a parameter commonly used to quantify the change in the lipid fluidity. […] The GP parameter allowed quantifying the effect of the peptide (Table 1). […]

[4] = Circular dichroism spectroscopy in aqueous solution; type: physicochemical; settings: room temperature
Method: CD spectra were recorded at room temperature on a Jasco J-715 spectropolarimeter in a 0.1 cm quartz cell. The spectra are an average of 3 consecutive scans from 260 to 190 nm, recorded with a band width of 3 nm, a time constant of 16 s, and a scan rate of 10 nm/min. Spectra were recorded and corrected for the blank. Mean residue ellipticities (MRE) were calculated as MRE = Obsd/lcn (Obsd is the ellipticity measured in millidegrees, l is the path length of the cell in cm, c is the peptide concentration in mol/l, and n is the number of amino acid residues in the peptide). A solution of 8 µM of peptide with SUVs, was prepared as previously described. […] The percentage of helix was calculated from measurements of their mean residue ellipticity at 222 nm[44]. We used [ϑ]222 values of 0 and −40.000(1–2.5/n) deg cm^2 dmol^−1 per amino acid residue for 0% and 100% helicity; n is the number of amino acid residues. The ratio of the ellipticities at 222 and 208 nm were used to discriminate between monomeric and oligomeric states of helices. The experiment was performed before and after centrifugation to remove eventual precipitated peptides from solution.

[5] = system: human neuroblastoma and glioblastoma astrocytoma; parameters: method as in PMID 25792823; settings: human neuroblastoma and glioblastoma astrocytoma cells; cited from earlier work
[6] = previous work; cited from earlier work
Text: In general a high accumulation in the target tissue results in an improved therapeutic effect, while a large amount of drug distributed to non-target organs may cause unwanted toxicity and/or side effects. It is thus fundamental to reduce liver metabolism and renal clearance to produce prolonged blood circulation with an i ...

## CC[C@H](C)[C@H](NC(=O)[C@H](CC(C)C)NC(=O)[C@H](C)NC(=O)[C@H](CC(N)=O)NC(=O)[C@H](Cc1ccc(O)cc1)NC(=O)[C@H](Cc1c[nH]cn1)NC(=O)[C@H](C)NC(=O)[C@H](Cc1c[nH]c2ccccc12)NC(=O)[C@H](CCCNC(=N)N)NC(=O)[C@@H](NC(=O)[C@H](CC(C)C)NC(=O)[C@@H](NC(=O)[C@H](CO)NC(=O)[C@H](C)NC(=O)[C@H](CC(C)C)NC(=O)CNC(=O)[C@@H](N)Cc1c[nH]cn1)[C@@H](C)O)[C@@H](C)O)C(=O)N[C@@H](CCCNC(=N)N)C(=O)N[C@@H](C)C(=O)N[C@@H](Cc1ccccc1)C(N)=O [gH625] (H-HGLASTLTRWAHYNALIRAF-NH2)
[1]; BBB mimicking LUVs
  Stern-Volmer quenching constant (Ksv): 2.05 ± 0.08 M⁻¹
[1]; liver mimicking LUVs
  Stern-Volmer quenching constant (Ksv): 3.04 ± 0.06 M⁻¹
[2]; at a P/L ratio corresponding to 100% of fusion, BBB mimicking LUVs
  Inner monolayer fusion: approximately 20%
[2]; at a peptide/lipid ratio with 100% of lipid mixing, liver mimicking LUVs
  Inner monolayer fusion: 100%
[3]; Laurdan in LUVs DSPC/POPE/PI/PS/lysoPC/SM/DOPG (37/21/7/9/3/18/5), no peptide 37 °C: 0.40
  Generalized polarization (GP) value, +gH625: 0.49
[3]; Laurdan in LUVs PI/DOPE/DPPC/PS/Chol/SM (4/23/30/8/20/15), no peptide 37 °C: 0.19
  Generalized polarization (GP) value, +gH625: 0.15
[4]
  Secondary structure by CD: mainly random coil structure
[5]
  Percentage of uptake: 80–90%
[6]
  Alterations of cell viability or maximal mitochondrial oxidative capacity linked to uptake: not linked to alterations of cell viability or maximal mitochondrial oxidative capacity
